Source: patent US6737383B1, “Herbicidal oxadiazolidines” (priority 1999, dated 2004)

Experiments:
bamyardgrass = experiment: Test B flood test barnyardgrass; format: in vivo, Echinochloa crus-galli
In short: (§1)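 Read-out is a visual response score from 0 (no effect) to 10 (complete control), assigned by comparison with untreated controls. Treatment was applied at the 2-leaf stage, and plants stayed in the greenhouse for twelve to sixteen days before scoring.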

purple nutsedge = experiment: Test B pre/postemergence purple nutsedge; format: in vivo, Cyperus rotundus; details: for Plant response rating, Nutsedge: Rate 250 g/ha
In short: (§2)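 Herbicidal effect was estimated by eye on a ten-point control scale after plants spent twelve to sixteen days in a greenhouse following soil or foliar treatment. Foliar sprays targeted plants at one to four leaves; all doses were formulated in a non-phytotoxic solvent with surfactant.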

cocklebur = experiment: Test B pre/postemergence cocklebur; format: in vivo, Xanthium strumarium; details: for Plant response rating, Cocklebur: Rate 250 g/ha
In short: as §2

wheat = experiment: Test B pre/postemergence wheat; format: in vivo, Triticum aestivum; details: for Plant response rating, Wheat: Rate 250 g/ha
In short: as §2

surinam grass = experiment: Test B pre/postemergence surinam grass; format: in vivo, Brachiaria decumbens; details: for Plant response rating, B. signalgrass: Rate 250 g/ha
In short: as §2

blackgrass = experiment: Test B pre/postemergence blackgrass; format: in vivo, Alopecurus myosuroides; details: for Plant response rating, Blackgrass: Rate 250 g/ha
In short: as §2

duck salad = experiment: Test B flood test duck salad; format: in vivo, Heteranthera limosa
In short: as §1

crabgrass = experiment: Test B pre/postemergence crabgrass; format: in vivo, Digitaria sanguinalis; details: for Plant response rating, Crabgrass: Rate 250 g/ha
In short: as §2

soybean = experiment: Test B pre/postemergence soybean; format: in vivo, Glycine max; details: for Plant response rating, Soybean: Rate 250 g/ha
In short: as §2

bedstraw = experiment: Test B pre/postemergence bedstraw; format: in vivo, Galium aparine
In short: as §2

rice = experiment: Test B flood test rice; format: in vivo, Oryza sativa
In short: as §1

smallflower flatsedge = experiment: Test B flood test smallflower flatsedge; format: in vivo, Cyperus difformis
In short: as §1

velvetleaf = experiment: Test B pre/postemergence velvetleaf; format: in vivo, Abutilon theophrasti; details: for Plant response rating, Velvetleaf: Rate 250 g/ha
In short: as §2

wild oat = experiment: Test B pre/postemergence wild oat; format: in vivo, Avena fatua; details: for Plant response rating, Wild oats: Rate 250 g/ha
In short: as §2

rape = experiment: Test B pre/postemergence rape; format: in vivo, Brassica napus; details: for Plant response rating, Rape: Rate 250 g/ha
In short: as §2

corn = experiment: Test B pre/postemergence corn; format: in vivo, Zea mays; details: for Plant response rating, Corn: Rate 250 g/ha
In short: as §2

sugar beet = experiment: Test B pre/postemergence sugar beet; format: in vivo, Beta vulgaris; details: for Plant response rating, Sugarbeets: Rate 250 g/ha
In short: as §2

[1] = Postemergence (flood test species), Rate 125 g/ha, scale of 0 to 10 where 0 is no effect and 10 is complete control
[2] = Postemergence, Rate 62 g/ha, scale 0 to 10, 0 is no effect, 10 is complete control
[3] = Rate 250 g/ha, Postemergence (flood test), scale 0 to 10, 0 is no effect, 10 is complete control
[4] = Rate 250 g/ha, headed Pre-emergence (flood test species), scale 0 to 10 (0 no effect, 10 complete control)
[5] = Rate 500 g/ha, headed Pre-emergence (flood test species), scale 0 to 10 (0 no effect, 10 complete control)
[6] = Rate 500 g/ha, listed under Postemergence (flood test species), scale 0 to 10, 0 no effect, 10 complete control
[7] = Rate 1000 g/ha, Pre-emergence (as headed), scale 0 to 10
[8] = Postemergence, Rate 125 g/ha, scale of 0 to 10 where 0 is no effect and 10 is complete control
[9] = Preemergence, Rate 62 g/ha, scale 0 to 10 (0 no effect, 10 complete control)
[10] = Preemergence, Rate 125 g/ha, 0 is no effect, 10 is complete control
[11] = Preemergence, scale of 0 to 10 where 0 is no effect and 10 is complete control
[12] = Preemergence, Rate 500 g/ha, scale 0 to 10 (0 no effect, 10 complete control)
[13] = Rate 62 g/ha, Postemergence, scale of 0 to 10 where 0 is no effect and 10 is complete control
[14] = Postemergence, scale 0 to 10, 0 is no effect, 10 is complete control
[15] = Rate 500 g/ha, Postemergence, scale 0 to 10, 0 no effect, 10 complete control
[16] = Rate 62 g/ha, Postemergence section, flood test species, scale of 0 to 10 where 0 is no effect and 10 is complete control
[17] = Rate 2000 g/ha, Pre-emergence (as headed), scale 0 to 10

## CC(C)N(C(=O)n1oc(=O)n(-c2cnn(C)c2Cl)c1=O)c1ccccc1 [Compound 122]
bamyardgrass; [1]
  Barnyardgrass plant response rating: 0
bamyardgrass; [2]
  Barnyardgrass plant response rating: 0
bamyardgrass; [3]
  Plant response rating, Barnyardgrass: 0
bamyardgrass; [4]
  Barnyardgrass plant response rating: 0
bamyardgrass; [5]
  Plant response rating, Barnyardgrass: 0
bamyardgrass; [6]
  Barnyardgrass plant response rating: 0
bamyardgrass; [7]
  Barnyardgrass plant response rating: 0
bamyardgrass; Rate 2000 g/ha, Pre-emergence (as headed), scale 0 to 10, 0 no effect, 10 complete control
  Barnyardgrass plant response rating: 0
Purple nutsedge; [8]
  Nutsedge plant response rating: 0
Purple nutsedge; [9]
  Nutsedge plant response rating: 0
Purple nutsedge; [10]
  Nutsedge plant response rating (0 to 10 scale): 0
Purple nutsedge; [11]
  Plant response rating, Nutsedge: 0
Purple nutsedge; [12]
  Nutsedge plant response rating: 0
Purple nutsedge; [13]
  Nutsedge plant response rating: 0
Purple nutsedge; [14]
  Plant response rating, Nutsedge: 0
Purple nutsedge; [15]
  Nutsedge plant response rating: 0
cocklebur; [8]
  Cocklebur plant response rating: 2
cocklebur; [9]
  Cocklebur plant response rating: 0
cocklebur; [11]
  Plant response rating, Cocklebur: 0
cocklebur; [13]
  Cocklebur plant response rating: 0
cocklebur; [14]
  Plant response rating, Cocklebur: 3
cocklebur; [15]
  Cocklebur plant response rating: 3
wheat; [8]
  Wheat plant response rating: 0
wheat; [9]
  Wheat plant response rating: 0
wheat; [10]
  Wheat plant response rating (0 to 10 scale): 0
wheat; [11]
  Plant response rating, Wheat: 0
wheat; [12]
  Wheat plant response rating: 0
wheat; [13]
  Wheat plant response rating: 0
wheat; [14]
  Plant response rating, Wheat: 0
wheat; [15]
  Wheat plant response rating: 0
Surinam grass; [2]
  B. signalgrass plant response rating: 0
Surinam grass; [8]
  B. signalgrass plant response rating: 0
Surinam grass; [9]
  B. signalgrass plant response rating: 0
Surinam grass; [10]
  B. signalgrass plant response rating (0 to 10 scale): 0
Surinam grass; [11]
  Plant response rating, B. signalgrass: 0
Surinam grass; [12]
  B. signalgrass plant response rating: 5
Surinam grass; [14]
  Plant response rating, B. signalgrass: 0
Surinam grass; Rate 500 g/ha, Postemergence, scale of 0 to 10 where 0 is no effect and 10 is complete control
  B. signalgrass plant response rating: 0
blackgrass; [8]
  Blackgrass plant response rating: 0
blackgrass; [9]
  Blackgrass plant response rating: 0
blackgrass; [10]
  Blackgrass plant response rating (0 to 10 scale): 0
blackgrass; [11]
  Plant response rating, Blackgrass: 0
blackgrass; [12]
  Blackgrass plant response rating: 3
blackgrass; [13]
  Blackgrass plant response rating: 0
blackgrass; [14]
  Plant response rating, Blackgrass: 4
blackgrass; [15]
  Blackgrass plant response rating: 6
Duck salad; [1]
  Ducksalad plant response rating: 0
Duck salad; [16]
  Ducksalad plant response rating: 0
Duck salad; [3]
  Plant response rating, Ducksalad: 0
Duck salad; [4]
  Ducksalad plant response rating: 0
Duck salad; [5]
  Plant response rating, Ducksalad: 0
Duck salad; [6]
  Ducksalad plant response rating: 0
Duck salad; [7]
  Ducksalad plant response rating: 0
Duck salad; [17]
  Ducksalad plant response rating: 0
crabgrass; [8]
  Crabgrass plant response rating: 3
crabgrass; [9]
  Crabgrass plant response rating: 4
crabgrass; [10]
  Crabgrass plant response rating (0 to 10 scale): 4
crabgrass; [11]
  Plant response rating, Crabgrass: 8
crabgrass; [12]
  Crabgrass plant response rating: 8
crabgrass; [13]
  Crabgrass plant response rating: 0
crabgrass; [14]
  Plant response rating, Crabgrass: 4
crabgrass; [15]
  Crabgrass plant response rating: 5
soybean; [8]
  Soybean plant response rating: 3
soybean; [9]
  Soybean plant response rating: 0
soybean; [10]
  Soybean plant response rating (0 to 10 scale): 0
soybean; [11]
  Plant response rating, Soybean: 0
soybean; [12]
  Soybean plant response rating: 0
soybean; [13]
  Soybean plant response rating: 3
soybean; [14]
  Plant response rating, Soybean: 3
soybean; [15]
  Soybean plant response rating: 5
bedstraw; [9]
  Bedstraw plant response rating: 0
bedstraw; [10]
  Bedstraw plant response rating (0 to 10 scale): 0
bedstraw; Preemergence, Rate 250 g/ha, scale of 0 to 10 where 0 is no effect and 10 is complete control
  Plant response rating, Bedstraw: 0
bedstraw; [12]
  Bedstraw plant response rating: 0
bedstraw; [15]
  Bedstraw plant response rating: 3
rice; [1]
  Rice plant response rating: 0
rice; [16]
  Rice plant response rating: 0
rice; [3]
  Plant response rating, Rice: 0
rice; [4]
  Rice plant response rating: 0
rice; [5]
  Plant response rating, Rice: 0
rice; [6]
  Rice plant response rating: 0
rice; [7]
  Rice plant response rating: 0
rice; [17]
  Rice plant response rating: 0
Smallflower flatsedge; [1]
  S. Flatsedge plant response rating: 0
Smallflower flatsedge; Pre-emergence, Rate 1000 g/ha, scale 0 to 10 (0 no effect, 10 complete control)
  S. Flatsedge plant response rating: 0
Smallflower flatsedge; [16]
  S. Flatsedge plant response rating: 0
Smallflower flatsedge; [3]
  Plant response rating, S. Flatsedge: 0
Smallflower flatsedge; [4]
  S. Flatsedge plant response rating: 0
Smallflower flatsedge; [5]
  Plant response rating, S. Flatsedge: 0
Smallflower flatsedge; [6]
  S. Flatsedge plant response rating: 0
Smallflower flatsedge; [17]
  S. Flatsedge plant response rating: 0
velvetleaf; [8]
  Velvetleaf plant response rating: 0
velvetleaf; [9]
  Velvetleaf plant response rating: 0
velvetleaf; [10]
  Velvetleaf plant response rating (0 to 10 scale): 0
velvetleaf; [11]
  Plant response rating, Velvetleaf: 0
velvetleaf; [12]
  Velvetleaf plant response rating: 3
velvetleaf; [13]
  Velvetleaf plant response rating: 0
velvetleaf; [14]
  Plant response rating, Velvetleaf: 3
velvetleaf; [15]
  Velvetleaf plant response rating: 3
Wild oat; [8]
  Wild oats plant response rating: 0
Wild oat; [9]
  Wild oats plant response rating: 0
Wild oat; [10]
  Wild oats plant response rating (0 to 10 scale): 0
Wild oat; [11]
  Plant response rating, Wild oats: 3
Wild oat; [12]
  Wild oats plant response rating: 5
Wild oat; [13]
  Wild oats plant response rating: 0
Wild oat; [14]
  Plant response rating, Wild oats: 0
Wild oat; [15]
  Wild oats plant response rating: 0
rape; [8]
  Rape plant response rating: 0
rape; [9]
  Rape plant response rating: 0
rape; [10]
  Rape plant response rating (0 to 10 scale): 0
rape; [11]
  Plant response rating, Rape: 0
rape; [12]
  Rape plant response rating: 3
rape; [13]
  Rape plant response rating: 0
rape; [14]
  Plant response rating, Rape: 3
rape; [15]
  Rape plant response rating: 4
corn; [8]
  Corn plant response rating: 0
corn; [9]
  Corn plant response rating: 0
corn; [10]
  Corn plant response rating (0 to 10 scale): 0
corn; [11]
  Plant response rating, Corn: 0
corn; [12]
  Corn plant response rating: 0
corn; [13]
  Corn plant response rating: 0
corn; [14]
  Plant response rating, Corn: 0
corn; [15]
  Corn plant response rating: 0
Sugar beet; [8]
  Sugarbeets plant response rating: 0
Sugar beet; [9]
  Sugarbeets plant response rating: 0
Sugar beet; [10]
  Sugarbeets plant response rating (0 to 10 scale): 0
Sugar beet; [11]
  Plant response rating, Sugarbeets: 0
Sugar beet; [12]
  Sugarbeets plant response rating: 4
Sugar beet; [13]
  Sugarbeets plant response rating: 0
Sugar beet; [14]
  Plant response rating, Sugarbeets: 0
Sugar beet; [15]
  Sugarbeets plant response rating: 2
